molecular target: T1, human A2a receptor (Homo sapiens, UniProt P29274); assay: A2a receptor competition binding assay using Scintillation Proximity technology; settings: membranes from HEK293 cells expressing human A2a receptor; 0.5 nM tritiated radioligand; SPA beads; 1 h room temperature
T1 construct: purchased Perkin-Elmer RBHA2AM400UA; host or cells: HEK293 cell membranes
Procedure, shortened: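 Membranes of HEK293 cells expressing human A2a, pretreated with adenosine deaminase, incubated 1 h at room temperature with 0.5 nM tritiated pyrazolotriazolopyrimidine antagonist (final) and compound (3000 to 0.15 nM) on WGA SPA beads in Ca/Mg-free PBS with 10 mM MgCl2. Ki from EC50 via Cheng-Prusoff.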

T1 sequence (P29274 whole entry): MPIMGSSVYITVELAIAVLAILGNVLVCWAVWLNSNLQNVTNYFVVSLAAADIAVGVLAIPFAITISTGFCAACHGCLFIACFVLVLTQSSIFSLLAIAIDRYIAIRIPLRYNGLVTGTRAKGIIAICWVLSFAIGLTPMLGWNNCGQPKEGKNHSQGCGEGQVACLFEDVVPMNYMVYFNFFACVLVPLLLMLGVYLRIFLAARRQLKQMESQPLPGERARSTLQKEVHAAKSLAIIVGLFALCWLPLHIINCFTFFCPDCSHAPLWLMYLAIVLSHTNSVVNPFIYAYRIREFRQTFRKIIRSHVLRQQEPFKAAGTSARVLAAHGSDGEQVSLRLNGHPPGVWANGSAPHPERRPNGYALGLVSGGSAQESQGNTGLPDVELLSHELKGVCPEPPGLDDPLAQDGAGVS

EC50	Compound
4.2 nM	COc1cccc2c1nc(N)n1nc(CCN3CCc4cc(F)ccc4C3)nc21 [Ex-44, 2-(2-(6-fluoro-3,4-dihydroisoquinolin-2(1H)-yl)ethyl)-7-methoxy-[1,2,4]triazolo[1,5-c]quinazolin-5-amine]
47.8 nM	COc1cccc2c1nc(N)n1nc(CN3Cc4nnc(C(F)(F)F)n4C(C)(C)C3)nc21 [Ex-145, 2-((5,5-dimethyl-3-(trifluoromethyl)-5,6-dihydro-[1,2,4]triazolo[4,3-a]pyrazin-7(8H)-yl)methyl)-7-methoxy-[1,2,4]triazolo[1,5-c]quinazolin-5-amine]
55.2 nM	COc1cccc2c1nc(N)n1nc(C[C@H](C(F)F)N3Cc4cccnc4C3)nc21 [Ex-102]
5.9 nM	COc1cccc2c1nc(N)n1nc(CCN3CCc4c(Br)ccnc4C3)nc21 [Ex-6, 2-(2-(4-bromo-5,6-dihydro-1,7-naplithyridin-7(8H)-yl)ethyl)-7-methoxy-[1,2,4]triazolo[1,5-c]quinazolin-5-amine]
7.8 nM	COc1cccc2c1nc(N)n1nc(CCCN3Cc4cccc(F)c4C3)nc21 [Ex-228, 2-(3-(4-fluoroisoindolin-2-yl)propyl)-7-methoxy-[1,2,4]triazolo[1,5-c]quinazolin-5-amine]
1.2 nM	COc1cccc2c1nc(N)n1nc(CCN3CCn4cc(C(=O)C5CC5)nc4C3)nc21 [Ex-10, (7-(2-(5-amino-7-methoxy[1,2,4]triazolo[1,5-c]quinazolin-2-yl)ethyl)-5,6,7,8-tetrahydroimidazo[1,2-a]pyrazin-2-yl)(cyclopropyl)methanone]
6.9 nM	COc1cccc2c1nc(N)n1nc(C[C@@H](C)N3Cc4cccnc4C3)nc21 [Ex-107]
2.6 nM	COc1cccc2c1nc(N)n1nc(CCN3CCn4nc(C)cc4C3)nc21 [Ex-41, 7-methoxy-2-(2-(2-methyl-6,7-dihydropyrazolo[1,5-a]pyrazin-5(4H)-yl)ethyl)-[1,2,4]triazolo[1,5-c]quinazolin-5-amine]
1.6 nM	COc1cccc2c1nc(N)n1nc(CN3CCCCc4cccnc43)nc21 [Ex-157, 2-((7,8-dihydro-5H-pyrido[2,3-b]azepin-9(6H)-yl)methyl)-7-methoxy-[1,2,4]triazolo[1,5-c]quinazolin-5-amine]
5.8 nM	COc1cccc2c1nc(N)n1nc(CCN3Cc4ccc(N5CCN(C)CC5)nc4C3)nc21 [Ex-63, 7-methoxy-2-(2-(2-(4-methylpiperazin-1-yl)-5H-pyrrolo[3,4-b]pyridin-6(7H)-yl)ethyl)-[1,2,4]triazolo[1,5-c]quinazolin-5-amine]
2 nM	COc1cccc2c1nc(N)n1nc(CCN3CCn4nc(C5CC5)nc4C3)nc21 [Ex-12, 2-(2-(2-cyclopropyl-5,6-dihydro-[1,2,4]triazolo[1,5-a]pyrazin-7(8H)-yl)ethyl)-7-methoxy-[1,2,4]triazolo[1,5-c]quinazolin-5-amine]
2.2 nM	COc1cccc2c1nc(N)n1nc(CCN3CCn4c(cnc4C(C)C)C3)nc21 [Ex-8, 2-(2-(3-isopropyl-5,6-dihydroimidazo[1,5-a]pyrazin-7(8H)-yl)ethyl)-7-methoxy-[1,2,4]triazolo[1,5-c]quinazolin-5-amine]
1.7 nM	COc1cccc2c1nc(N)n1nc(CCN3CCc4nc(C)sc4C3)nc21 [Ex-29, 7-methoxy-2-(2-(2-methyl-6,7-dihydrothiazolo[5,4-c]pyridin-5(4H)-yl)ethyl)-[1,2,4]triazolo[1,5-c]quinazolin-5-amine]
149 nM	COc1cccc2c1nc(N)n1nc(CN3CCn4cnnc4C3)nc21 [Ex-141, 2-((5-dihydro-[1,2,4]triazolo[4,3-a]pyrazin-7(8H)-yl)methyl)-7-methoxy-[1,2,4]triazolo[1,5-c]quinazolin-5-amine]
22.3 nM	Nc1nc2c(OCF)cccc2c2nc(CCN3Cc4cccnc4C3)nn12 [Ex-79, 2-(2-(5H-pyrrolo[3,4-b]pyridin-6(7H)-yl)ethyl)-7-(fluoromethoxy)-[1,2,4]triazolo[1,5-c]quinazolin-5-amine]
274 nM	N#Cc1cccc2c1nc(N)n1nc(CN3CCc4cccnc4C3)nc21 [Ex-196, 5-amino-2-((5,6-dihydro-1,7-naphthyridin-7(8H)-yl)methyl)[1,2,4]triazolo[1,5-c]quinazoline-7-carbonitrile]
1.5 nM	COc1cccc2c1nc(N)n1nc(CCN3Cc4nc(C)sc4C3)nc21 [Ex-14, 7-methoxy-2-(2-(2-methyl-4H-pyrrolo[3,4-d]thiazol-5(6H)-yl)ethyl)-[1,2,4]triazolo[1,5-c]quinazolin-5-amine]
31.2 nM	COc1cccc2c1nc(N)n1nc(CCN3CCc4cccnc43)nc21 [Ex-21, 2-(2-(2,3-dihydro-1H-pyrrolo[2,3-b]pyridin-1-yl)ethyl)-7-methoxy-[1,2,4]triazolo[1,5-c]quinazolin-5-amine]

Source: US10011615B2, “Heterobicyclo-substituted [1,2,4]triazolo[1,5-c]quinazolin-5-amine compounds with A2A anatagonist properties” (Merck Sharp & Dohme Corp., priority 2012, dated 2018)
